Test results from the supplement of paper PMC11061612.

Tests used:
Assay in all cases: combination Emax (second highest fraction inhibited in the dose matrix, 72 h); higher = more inhibition; extreme values may be limits of the assay
LN-229 (Glioblastoma) = tested on: LN-229 (Glioblastoma)
How it was run: (§1)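 Bliss excess equals the observed combination effect minus the expected value EA + EB − EA·EB, where EA and EB are the effects of each agent alone. Combination Emax is the second-highest inhibition within the matrix. Inhibition was scaled from CellTiter-Glo 2.0 luminescence, with 0 set by vehicle wells and 1 by blank wells, after 72 hours of two-drug dosing of cells plated in 1536-well plates.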

[1] = tested on: FADU (Head and Neck Carcinoma)
How it was run: as §1

[2] = tested on: SU-DHL-10 (B-Cell Non-Hodgkin's Lymphoma)
How it was run: as §1

[3] = tested on: RCM-1 (Colorectal Carcinoma)
How it was run: as §1

[4] = tested on: PANC-03-27 (Pancreatic Carcinoma)
How it was run: as §1

[5] = tested on: REH (B-Lymphoblastic Leukemia)
How it was run: as §1

[6] = tested on: KE-37 (T-Lymphoblastic Leukemia)
How it was run: as §1

[7] = tested on: OAW-42 (Ovarian Carcinoma)
How it was run: as §1

[8] = tested on: PC-3_[JPC-3] (Lung Adenocarcinoma)
How it was run: as §1

[9] = tested on: L-1236 (Hodgkin's Lymphoma)
How it was run: as §1

SF539 (Glioblastoma) = tested on: SF539 (Glioblastoma)
How it was run: as §1

[10] = tested on: VAL (B-Cell Non-Hodgkin's Lymphoma)
How it was run: as §1

SF268 (Low Grade Glioma) = tested on: SF268 (Low Grade Glioma)
How it was run: as §1

[11] = tested on: NCI-H446 (Small Cell Lung Carcinoma)
How it was run: as §1

[12] = tested on: CAL-62 (Thyroid Gland Carcinoma)
How it was run: as §1

[13] = tested on: OPM-2 (Plasma Cell Myeloma)
How it was run: as §1

[14] = tested on: TE-8 (Esophageal Squamous Cell Carcinoma)
How it was run: as §1

[15] = tested on: NCI-H2342 (Lung Adenocarcinoma)
How it was run: as §1

[16] = tested on: HEC-1 (Endometrial Carcinoma)
How it was run: as §1

[17] = tested on: MFE-280 (Endometrial Carcinoma)
How it was run: as §1

Structure (SMILES) | combination Emax (LN-229 (Glioblastoma)) | combination Emax [1] | combination Emax [2] | combination Emax [3] | combination Emax [4] | combination Emax [5] | combination Emax [6] | combination Emax [7] | combination Emax [8] | combination Emax [9] | combination Emax (SF539 (Glioblastoma)) | combination Emax [10] | combination Emax (SF268 (Low Grade Glioma)) | combination Emax [11] | combination Emax [12] | combination Emax [13] | combination Emax [14] | combination Emax [15] | combination Emax [16] | combination Emax [17]
CC(=O)Nc1cccc(-n2c(=O)n(C3CC3)c(=O)c3c(Nc4ccc(I)cc4F)n(C)c(=O)c(C)c32)c1 [Trametinib] + Cc1nc(-c2cn3c(n2)-c2ccc(-c4cnn(C(C)(C)C(N)=O)c4)cc2OCC3)n(C(C)C)n1 [Taselisib] (first compound max 1 µM, 7x7, partner max 10 µM) | 0.803 | 0.837 | 0.977 | 0.871 | 0.982 | 0.544 | 0.676 | 0.969 | 0.882 | 0.513 | 0.989 | 0.424 | 0.484 | 0.94 | 0.765 | 1 | 0.782 | 0.5 | 0.346 | 0.939
CC1(C)CCC(CN2CCN(c3ccc(C(=O)NS(=O)(=O)c4ccc(NCC5CCOCC5)c([N+](=O)[O-])c4)c(Oc4cnc5[nH]ccc5c4)c3)CC2)=C(c2ccc(Cl)cc2)C1 [Venetoclax] + C1CN(CCC1(C(=O)N[C@@H](CCO)C2=CC=C(C=C2)Cl)N)C3=NC=NC4=C3C=CN4 [Capivasertib] (first compound max 1 µM, 7x7, partner max 3 µM) | 0.086 | 0.155 | 0.957 | 0.367 | 0.626 | 0.936 | 0.695 | 0.368 | 0.168 | 0.644 | 0.551 | 1 | 0.273 | 0.561 | 0.172 | 0.925 | 0.424 | 0.248 | 0.102 | 0.512
CC1(C)CCC(CN2CCN(c3ccc(C(=O)NS(=O)(=O)c4ccc(NCC5CCOCC5)c([N+](=O)[O-])c4)c(Oc4cnc5[nH]ccc5c4)c3)CC2)=C(c2ccc(Cl)cc2)C1 [Venetoclax] + C=CCn1c(=O)c2cnc(Nc3ccc(N4CCN(C)CC4)cc3)nc2n1-c1cccc(C(C)(C)O)n1 [AZD1775] (first compound max 1 µM, partner max 1 µM) | 0.292 | 0.491 | 0.967 | 0.698 | 0.855 | 1 | 1 | 0.436 | 0.427 | 0.865 | 0.972 | 1 | 0.524 | 0.943 | 0.849 | 0.971 | 0.883 | 0.268 | 0.182 | 0.621
CC1(C)CCC(CN2CCN(c3ccc(C(=O)NS(=O)(=O)c4ccc(NCC5CCOCC5)c([N+](=O)[O-])c4)c(Oc4cnc5[nH]ccc5c4)c3)CC2)=C(c2ccc(Cl)cc2)C1 [Venetoclax] + CCN(CCO)CCCOc1ccc2c(Nc3cc(CC(=O)Nc4cccc(F)c4)[nH]n3)ncnc2c1 [AZD2811] (first compound max 1 µM, 7x7, partner max 1 µM) | 0.208 | 0.219 | 0.807 | 0.372 | 0.673 | 1 | 1 | 0.204 | 0.182 | 0.718 | 0.481 | 1 | 0.328 | 0.894 | 0.252 | 0.689 | 0.396 | 0.217 | 0.16 | 0.371
CC1(C)CCC(CN2CCN(c3ccc(C(=O)NS(=O)(=O)c4ccc(NCC5CCOCC5)c([N+](=O)[O-])c4)c(Oc4cnc5[nH]ccc5c4)c3)CC2)=C(c2ccc(Cl)cc2)C1 [Venetoclax] + CN(C)CCCOc1ccc(-c2ccc3ncc4c(c3c2)n(C2CCOCC2)c(=O)n4C)cn1 [AZD0156] (first compound max 1 µM, 7x7, partner max 1 µM) | 0.212 | 0.196 | 0.137 | 0.45 | 0.684 | 0.908 | 0.196 | 0.204 | 0.25 | 0.705 | 0.292 | 1 | 0.298 | 0.304 | 0.465 | 0.574 | 0.519 | 0.203 | 0.163 | 0.423
CC1(C)CCC(CN2CCN(c3ccc(C(=O)NS(=O)(=O)c4ccc(NCC5CCOCC5)c([N+](=O)[O-])c4)c(Oc4cnc5[nH]ccc5c4)c3)CC2)=C(c2ccc(Cl)cc2)C1 [Venetoclax] + COc1cc(Nc2ncc3c(n2)-c2ccc(Cl)cc2C(c2c(F)cccc2OC)=NC3)ccc1C(=O)O [Alisertib] (first compound max 1 µM, 7x7, partner max 10 µM) | 0.2 | 0.351 | 0.827 | 0.372 | 0.56 | 0.99 | 0.955 | 0.652 | 0.686 | 0.678 | 0.454 | 1 | 0.419 | 0.909 | 0.51 | 0.828 | 0.673 | 0.214 | 0.165 | 0.734
CC1(C)CCC(CN2CCN(c3ccc(C(=O)NS(=O)(=O)c4ccc(NCC5CCOCC5)c([N+](=O)[O-])c4)c(Oc4cnc5[nH]ccc5c4)c3)CC2)=C(c2ccc(Cl)cc2)C1 [Venetoclax] + C[C@@H]1COCCN1C2=NC(=NC(=C2)C3(CC3)[S@](=N)(=O)C)C4=C5C=CNC5=NC=C4 [AZD6738] (first compound max 1 µM, 7x7, partner max 10 µM) | 0.582 | 0.614 | 0.912 | 0.78 | 0.781 | 0.996 | 1 | 0.561 | 0.442 | 0.847 | 0.87 | 1 | 0.64 | 0.924 | 0.83 | 0.943 | 0.793 | 0.265 | 0.41 | 0.423
CC1(C)CCC(CN2CCN(c3ccc(C(=O)NS(=O)(=O)c4ccc(NCC5CCOCC5)c([N+](=O)[O-])c4)c(Oc4cnc5[nH]ccc5c4)c3)CC2)=C(c2ccc(Cl)cc2)C1 [Venetoclax] + C[C@@H](Nc1cc(F)cc(F)c1)c1cc(C(=O)N(C)C)cc2c(=O)cc(N3CCOCC3)oc12 [AZD8186] (first compound max 1 µM, 7x7, partner max 3 µM) | 0.0902 | 0.128 | 0.735 | 0.28 | 0.592 | 0.96 | 0.356 | 0.125 | 0.298 | 0.665 | 0.287 | 1 | 0.127 | 0.581 | 0.119 | 0.513 | 0.401 | 0.265 | 0.0634 | 0.371
CC1(C)CCC(CN2CCN(c3ccc(C(=O)NS(=O)(=O)c4ccc(NCC5CCOCC5)c([N+](=O)[O-])c4)c(Oc4cnc5[nH]ccc5c4)c3)CC2)=C(c2ccc(Cl)cc2)C1 [Venetoclax] + Cc1cc2ncnn2cc1Nc1ncc2c(n1)n(C1CCOCC1)c(=O)n2C [AZD7648] (first compound max 1 µM, 7x7, partner max 10 µM) | 0.115 | 0.237 | 0.249 | 0.362 | 0.584 | 0.875 | 0.404 | 0.425 | 0.297 | 0.621 | 0.341 | 1 | 0.268 | 0.403 | 0.366 | 0.642 | 0.401 | 0.214 | 0.167 | 0.319
CC1(C)CCC(CN2CCN(c3ccc(C(=O)NS(=O)(=O)c4ccc(NCC5CCOCC5)c([N+](=O)[O-])c4)c(Oc4cnc5[nH]ccc5c4)c3)CC2)=C(c2ccc(Cl)cc2)C1 [Venetoclax] + Cn1cnc2c(F)c(Nc3ccc(Br)cc3Cl)c(C(=O)NOCCO)cc21 [Selumetinib] (first compound max 1 µM, 7x7, partner max 3 µM) | 0.3 | 0.364 | 0.072 | 0.571 | 0.684 | 0.897 | 0.352 | 0.147 | 0.173 | 0.731 | 0.217 | 1 | 0.157 | 0.198 | 0.256 | 0.385 | 0.457 | 0.193 | 0.0851 | 0.18
